The text below walks through data of patent US20060281763A1, “Carboxamide inhibitors of TGFbeta” (priority 2005, published 2006).

This experiment has as its target T1, TGFβ R1 (Homo sapiens, UniProt P36897).
T1 sequence (P36897 34-503): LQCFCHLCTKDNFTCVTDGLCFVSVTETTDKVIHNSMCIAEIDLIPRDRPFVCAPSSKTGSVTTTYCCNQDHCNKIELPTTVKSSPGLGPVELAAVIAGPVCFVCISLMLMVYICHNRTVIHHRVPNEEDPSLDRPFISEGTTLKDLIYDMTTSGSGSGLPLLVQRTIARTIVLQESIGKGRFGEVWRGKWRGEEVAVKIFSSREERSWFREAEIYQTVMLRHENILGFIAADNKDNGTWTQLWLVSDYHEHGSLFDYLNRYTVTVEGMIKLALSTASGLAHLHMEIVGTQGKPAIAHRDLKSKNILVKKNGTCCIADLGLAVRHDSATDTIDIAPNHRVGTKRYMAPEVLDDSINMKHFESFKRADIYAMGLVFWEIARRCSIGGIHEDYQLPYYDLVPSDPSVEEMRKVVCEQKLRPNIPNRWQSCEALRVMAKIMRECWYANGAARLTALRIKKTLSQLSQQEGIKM
Briefly: TGFβ R1 autophosphorylation protocol (33P-ATP, phosphocellulose filter plate). The experiment is classed as biochemical. The note with it: 10 uM ATP, read-out: IC50 for Kinase Inhibition. A digest of the protocol:
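Radiometric autophosphorylation: 170 nM enzyme with compound (≤1% DMSO), 10 uM ATP plus γ-33P-ATP, […] in 20 mM MOPS pH 7, 20 min at room temperature. Reaction stopped on phosphocellulose filter, washed with H3PO4 and ethanol, counted by scintillation.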

Where [1] appears, read: 170 nM TGFβ R1, 20 minutes at room temperature.
Setting [2] is: 170 nM TGFβ R1, room temperature 20 minutes.

Where two headings read alike, the source gives them in different places.

As to `COc1cnc(-c2cc(Cl)ccc2F)nc1Nc1ccncc1C(=O)NCCCN1CCCC1=O` [Compound 11, 4-{2-(5-Chloro-2-fluoro-phenyl)-5-methoxy-pyrimidin-4-ylamino]-N-[3-(2-oxo-pyrrolidin-1-yl)-propyl]-nicotinamide], the IC50 (as a rule, the midpoint of a concentration-inhibition curve) under setting [1] stood at 120 nM.

On to `CC(C)c1cnc(-c2cc(Cl)ccc2F)nc1Nc1ccncc1C(=O)N[C@H](CO)[C@@H](C)O` [Compound 84, 4-[2-(5-Chloro-2-fluoro-phenyl)-5-isopropyl-pyrimidin-4-ylamino]-N-(2-hydroxy-1-hydroxymethyl-propyl)-nicotinamide], for which the concentration for half-maximal inhibition (IC50) under setting [1] was 1730 nM.

For the molecule `COc1cnc(-c2cc(Cl)ccc2F)nc1Nc1ccncc1C(=O)NCCNCC(F)(F)C(F)(F)F` [Compound 102, 4-[2-(5-Chloro-2-fluoro-phenyl)-5-methoxy-pyrimidin-4-ylamino]-N-[2-(2,2,3,3,3-pentafluoro-propylamino)-ethyl]-nicotinamide], the 50% inhibitory concentration (IC50) under setting [1] was found to be 70 nM.

In the case of `COc1cnc(-c2cc(Cl)ccc2F)nc1Nc1ccncc1C(=O)NCCn1cccc1` [Compound 57, 4-[2-(5-Chloro-2-fluoro-phenyl)-5-methoxy-pyrimidin-4-ylamino]-N-(2-pyrrol-1-yl-ethyl)-nicotinamide], the half-inhibitory concentration (IC50) under setting [1] amounted to 70 nM.

On to `COc1cnc(-c2cc(Cl)ccc2F)nc1Nc1ccncc1C(=O)NC1CCN(C(=O)CC2O[C@H](CO)[C@@H](O)[C@H](O)[C@H]2O)CC1` (some centres unmarked) [Compound 148, 4-[2-(5-Chloro-2-fluoro-phenyl)-5-methoxy-pyrimidin-4-ylamino]-N-{1-[2-(3,4,5-trihydroxy-6-hydroxymethyl-tetrahydro-pyran-2-yl)-acetyl]-piperidin-4-yl}-nicotinamide], for which the half-inhibitory concentration (IC50) under setting [1] worked out at 207 nM.

For the molecule `CC(C)c1cnc(-c2cc(Cl)ccc2F)nc1Nc1ccncc1C(=O)N1CCC[C@H](O)C1` [Compound 214, {4-[2-(5-Chloro-2-fluoro-phenyl)-5-isopropyl-pyrimidin-4-ylamino]-pyridin-3-yl}-(3-hydroxy-piperidin-1-yl)-methanone], the IC50 under setting [2] came to 283 nM.

Turning to `COc1cnc(-c2cc(Cl)ccc2F)nc1Nc1ccncc1C(=O)NC1CCN(CCC2O[C@H](CO)[C@@H](O)[C@H](O)[C@@H]2O)CC1` (some centres unmarked) [Compound 152, 4-[2-(5-Chloro-2-fluoro-phenyl)-5-methoxy-pyrimidin-4-ylamino]-N-{1-[2-(3,4,5-trihydroxy-6-hydroxymethyl-tetrahydro-pyran-2-yl)-ethyl]-piperidin-4-yl}-nicotinamide], the concentration for half-maximal inhibition (IC50) under setting [1] was 28 nM.

As to `COc1cnc(-c2cc(Cl)ccc2F)nc1Nc1ccncc1C(=O)NCCNC(=O)COC1O[C@H](COC(C)=O)[C@@H](OC(C)=O)[C@H](OC(C)=O)[C@H]1OC(C)=O` (some centres unmarked) [Compound 143, Acetic acid 3,4,5-triacetoxy-6-{[2-({4-[2-(5-chloro-2-fluoro-phenyl)-5-methoxy-pyrimidin-4-ylamino]-pyridine-3-carbonyl}-amino)-ethylcarbamoyl]-methoxy}-tetrahydro-pyran-2-ylmethyl ester], under setting [1], the 50% inhibitory concentration (IC50) came to 183 nM.

With `CC(C)c1cnc(-c2cc(Cl)ccc2F)nc1Nc1ccncc1C(=O)N1CCC(O)CC1` [Compound 230, {4-[2-(5-Chloro-2-fluoro-phenyl)-5-isopropyl-pyrimidin-4-ylamino)-pyridin-3-yl}-(4-hydroxy-piperidin-1-yl)-methanone], the IC50 under setting [2] turned out to be 1140 nM.

`COc1cnc(-c2cc(Cl)ccc2F)nc1Nc1ccncc1C(=O)N1CCN(C)CC1` [Compound 118, {4-[2-(5-Chloro-2-fluoro-phenyl)-5-methoxy-pyrimidin-4-ylamino]-pyridin-3-yl}-(4-methyl-piperazin-1-yl)-methanone]: the IC50 under setting [1] turned out to be 6570 nM.

For the molecule `CC(C)c1cnc(-c2cc(Cl)ccc2F)nc1Nc1ccncc1C(=O)NC1(CO)CC1` [Compound 150, 4-[2-(5-Chloro-2-fluoro-phenyl)-5-isopropyl-pyrimidin-4-ylamino]-N-(1-hydroxymethyl-cyclopropyl)-nicotinamide], the IC50 under setting [1] was 10 nM.

Consider `COc1cnc(-c2cc(Cl)ccc2F)nc1Nc1ccncc1C(=O)N1CCNCC1` [Compound 117, {4-[2-(5-Chloro-2-fluoro-phenyl)-5-methoxy-pyrimidin-4-ylamino]-pyridin-3-yl}-piperazin-1-yl-methanone], for which the IC50 under setting [1] stood at 6780 nM.

Turning to `COc1cnc(-c2cc(Cl)ccc2F)nc1Nc1ccncc1C(=O)NCCCN/C(=N/C#N)NC(C)C` [Compound 42], the concentration for half-maximal inhibition (IC50) under setting [1] worked out at 120 nM.

As to `COC[C@H]1OC(CCNCCCNC(=O)c2cnccc2Nc2nc(-c3cc(Cl)ccc3F)ncc2OC)[C@@H](OC)[C@@H](OC)[C@@H]1OC` (some centres unmarked) [Compound 96, 4-[2-(5-Chloro-2-fluoro-phenyl)-5-methoxy-pyrimidin-4-ylamino]-N-(3-[2-(3,4,5-trimethoxy-6-methoxymethyl-tetrahydro-pyran-2-yl)-ethylamino]-propyl)-nicotinamide], the half-inhibitory concentration (IC50) under setting [1] is 70 nM.

`CC(C)c1cnc(-c2cc(Cl)ccc2F)nc1Nc1ccncc1C(=O)N1CCN[C@@H](C(C)C)C1` [Compound 231, {4-[2-(5-Chloro-2-fluoro-phenyl)-5-isopropyl-pyrimidin-4-ylamino]-pyridin-3-yl}-(3-isopropyl-piperazin-1-yl)-methanone]: under setting [2], the concentration for half-maximal inhibition (IC50) is 1090 nM.

Turning to `COc1cnc(-c2cc(Cl)ccc2F)nc1Nc1ccncc1C(=O)NCCN` [Compound 39, N-(2-Amino-ethyl)-4-[2-(5-chloro-2-fluoro-phenyl)-5-methoxy-pyrimidin-4-ylamino]-nicotinamide], the IC50 under setting [1] was 50 nM.

Regarding `COc1cnc(-c2cc(Cl)ccc2F)nc1Nc1ccncc1C(=O)NCCCNCCC1O[C@H](CO)[C@@H](O)[C@H](O)[C@H]1O` (some centres unmarked) [Compound 127, 4-[2-(5-Chloro-2-fluoro-phenyl)-5-methoxy-pyrimidin-4-ylamino]-N-{3-[2-(3,4,5-trihydroxy-6-hydroxymethyl-tetrahydro-pyran-2-yl)-ethylamino]-propyl}-nicotinamide], the IC50 under setting [1] was 63 nM.

Turning to `COc1cnc(-c2cc(Cl)ccc2F)nc1Nc1ccncc1C(=O)NCCCN` [Compound 100, N-(3-Amino-propyl)-4-[2-(5-chloro-2-fluoro-phenyl)-5-methoxy-pyrimidin-4-ylamino]-nicotinamide], under setting [1], the half-maximal inhibitory concentration (IC50) came out at 30 nM.

As for `COc1cnc(-c2cc(Cl)ccc2F)nc1Nc1ccncc1C(=O)N1CC[C@@H](N)C1` [Compound 174, (3-Amino-pyrrolidin-1-yl)-{4-[2-(5-chloro-2-fluoro-phenyl)-5-methoxy-pyrimidin-4-ylamino]-pyridin-3-yl}-methanone], under setting [2], the concentration for half-maximal inhibition (IC50) is 1160 nM.

As to `COc1cnc(-c2cc(Cl)ccc2F)nc1Nc1ccncc1C(=O)NCCCN1CCCC1` [Compound 29], under setting [1], the 50% inhibitory concentration (IC50) was found to be 30 nM.

For the molecule `COc1cnc(-c2cc(Cl)ccc2F)nc1Nc1ccncc1C(=O)NCCC(N)=O` [Compound 70, N-(2-Carbamoyl-ethyl)-4-[2-(5-choro-2-fluoro-phenyl)-5-methoxy-pyrimidin-4-ylamino]-nicotinamide], under setting [1], the IC50 was 200 nM.

In the case of `CN/C(=N\C#N)NCCCNC(=O)c1cnccc1Nc1nc(-c2cc(Cl)ccc2F)ncc1OC` [Compound 41], the half-inhibitory concentration (IC50) under setting [1] worked out at 50 nM.

`CC(C)c1cnc(-c2cc(Cl)ccc2F)nc1Nc1ccncc1C(=O)NC1C[C@@H]1CO` (stereo in doubt) [Compound 215, 4-[2-(5-Chloro-2-fluoro-phenyl)-5-isopropyl-pyrimidin-4-ylamino]-N-(2-hydroxymethyl-cyclopropyl)-nicotinamide]: the IC50 under setting [2] was 5 nM.

On to `CC(C)c1cnc(-c2cc(Cl)ccc2F)nc1Nc1ccncc1C(=O)NCCCN1CCCC[C@H]1C(=O)N1CCCC1` [Compound 183, 4-[2-(5-Chloro-2-fluoro-phenyl)-5-isopropyl-pyrimidin-4-ylamino]-N-{3-[2-(pyrrolidine-1-carbonyl)-piperidin-1-yl]-propyl}-nicotinamide], for which, under setting [2], the IC50 turned out to be 21 nM.

`CC(O)CNC(=O)c1c[n+]([O-])ccc1Nc1nc(-c2cc(Cl)ccc2F)ncc1C(C)C` (centres unmarked) [Compound 198, 4-[2-(5-Chloro-2-fluoro-phenyl)-5-isopropyl-pyrimidin-4-ylamino]-N-(2-hydroxy-propyl)-1-oxy-nicotinamide]: the IC50 under setting [2] came to 148 nM.

`CCNC(=O)[C@@H]1CCCN1CCCNC(=O)c1cnccc1Nc1nc(-c2cc(Cl)ccc2F)ncc1OC` [Compound 167, 4-[2-(5-Chloro-2-fluoro-phenyl)-5-methoxy-pyrimidin-4-ylamino]-N-[3-(2-ethylcarbamoyl-pyrrolidin-1-yl)-propyl]-nicotinamide]: the 50% inhibitory concentration (IC50) under setting [2] turned out to be 28 nM.

Take `COc1cnc(-c2cc(Cl)ccc2F)nc1Nc1ccncc1C(=O)NCCCN1CCC[C@@H]1C(N)=O` [Compound 166, N-[3-(2-Carbamoyl-pyrrolidin-1-yl)-propyl]-4-[2-(5-chloro-2-fluoro-phenyl)-5-methoxy-pyrimidin-4-ylamino]-nicotinamide]: the half-maximal inhibitory concentration (IC50) under setting [2] stood at 5 nM.

Take `COC[C@H]1OC(CCNCCCNC(=O)c2cnccc2Nc2nc(-c3cc(Cl)ccc3F)ncc2OC)[C@H](OC)[C@@H](OC)[C@H]1OC` (some centres unmarked) [Compound 126]: the IC50 under setting [1] turned out to be 50 nM.

For the molecule `COc1cnc(-c2cc(Cl)ccc2F)nc1Nc1ccncc1C(=O)NCC1CN(C(=O)OC(C)(C)C)C1` [Compound 105], the IC50 under setting [1] came out at 240 nM.
